Assay results as given in patent US20230405003A1, “APPLICATION OF THYMIDINE DERIVATIVE IN PREPARATION OF DRUGS” (ONQUALITY PHARMACEUTICALS CHINA LTD., priority 2020, published 2023).

Columns and labels:
HaCaT cells = assay: Relief of 5-FU proliferative toxicity to HaCaT cells (CCK-8 cell survival); assay type: cell-based; details: for activation at 1000 µM: compound 1000 μM; for Cell Survival Rate (increased percentage of cell survival compared with the Group of 5-FU): 5-Fu 20 μM, HaCaT cells
Protocol: The cultured skin cell HaCaTs were digested, counted, and inoculated into a 96-well plate with 5000-10000 cells in each well. After 24 h of culture, the wells were divided into Group of blank solvent control, Group of 5-FU, Group of 5-FU+thymidine derivative, Group of 5-FU+the combination of thymidine derivative and uridine derivative. […] adding a solution of 5-FU and a solution of thymidine derivative (the final concentrations of 5-FU and thymidine derivative are shown in Table 3, the solution of thymidine is an aqueous solution, while the solutions of thymidine derivatives are all DMSO solutions); Group of 5-FU+the combination of thymidine derivative and uridine derivative: adding a solution of 5-FU and a mixed solution of thymidine derivative and uridine derivative (the final concentrations of the solution of 5-FU and the mixed solution of thymidine derivative+uridine derivative are shown in Table 3, the solution of thymidine is an aqueous solution, while the mixed solutions of thymidine derivative+uridine derivative are all DMSO solutions); Group of blank solvent control: adding the same type of solution as those of the corresponding Group of 5-FU or Group of 5-FU+thymidine derivative (or the mixed solution of thymidine derivative+uridine derivative) in equal volume. Group of blank solvent control was used as control to exclude the influence of the solvents in Group of 5-FU and Group of 5-FU+thymidine derivative (or the mixed solution of thymidine derivative+uridine derivative) on the results. After additional 48 hours of culture, a Cell Counting Kit-8 (CCK-8) detection kit (C0037, purchased from Shanghai Beyotime Biotechnology) is used to determine the cell survival rate, thereby calculating the proliferative toxicity of 5-Fu/5-DFUR on cells and the relieving effect of the thymidine derivative (or the mixed solution of thymidine derivative+uridine derivative) on the proliferative toxicity. Using GraphPad Prism 6.0 software, the results were statistically analyzed by t-test and plotted.
(§1) Table 3 lists the combinations of 5-FU and thymidine derivative (or the mixed solution of thymidine derivative+uridine derivative), and the corresponding experimental results (wherein the data in the column of cell survival indicate the corresponding increased percentage of the cell survivals of Group of 5-FU+thymidine derivative or Group of 5-FU+the combination of thymidine derivative and uridine derivative compared with the Group of 5-FU). FIGS. 3-10 list the experimental results of several representative compounds.
The effect of thymidine derivative or a combination of thymidine derivative and uridine derivative on relieving the proliferative toxicity of a chemotherapeutical drug (5-FU) to HaCaT cells was tested according to the method in Examples 2-29. The test thymidine derivative or the combination of thymidine derivative and uridine derivative, as well as the final concentration of the test compounds were shown in Table 7.
as §1, with “7” for “3”, “15-21” for “3-10”, “exemplary” for “representative”

[1] = system: hand-foot syndrome caused by capecitabine in SD rats; assay: Rat model of hand-foot syndrome caused by capecitabine, gel application; assay type: in vivo; details: capecitabine 4000 mg/kg once daily, 40 days; for Control Rate Forepaws / Control Rate Hindpaws: rats
Protocol: A rat animal model was established. 6-week aged female SD rats were administered with capecitabine by daily gavage. The degree of hand-foot syndrome in paws is similar, and there was no difference between the left and right paws. Similar to the human body, rats developed hand-foot syndrome after oral administration of capecitabine. The causes of the two are the same, and the disorder is also very similar. Therefore, rats are very good animal models for simulating the hand-foot syndrome caused by capecitabine.
After SD rats were fed and adapted for one week (about 200 g), the rats were divided into groups, with 10 rats in each group. Then, the rats were subject to gavage administration. Capecitabine was dissolved in a 1:1 mixed solution of castor oil and ethanol and diluted for three times with PBS buffer. After gavage, the rats were fixed with a fixed cylinder, and a gel of thymidine derivative (or a compounded gel of thymidine derivative and uridine derivative) was applied to double hind paws (about 1 cm*3 cm) of the rats in group of administration (the types and concentrations are shown in Table 4), and a blank gel was applied to the group of blank (as a blank control). After approximately 4 hours of application, the rats were released after 4 hours, wiped with clean water to remove any residual drug at the application site, and allowed back to the cage. The thymidine derivative gel (or the compounded gel of thymidine derivative and uridine derivative) was administered with gavage every day. The gavage and application tests are repeated daily until the group of blank has developed obvious hand-foot syndrome.
Table 4 lists the combinations of animal experiments of capecitabine and the thymidine derivative gel (or the compounded gel of thymidine derivative and uridine derivative) and the corresponding experimental results (wherein, the data in the column of control rate=the occurrence rate of hand-foot syndrome in group of blank—the occurrence rate of hand-foot syndrome in group of administration). […]

[2] = Homo sapiens, HaCaT, increase vs Group of 5-FU, 5-FU 20 μM, 48 h, read-out: Cell Survival Rate
[3] = selected compound final concentration 0.8 μM
[4] = selected compound final concentration 1.6 μM
[5] = selected compound final concentration 3.13 μM
[6] = selected compound final concentration 6.25 μM
[7] = selected compound final concentration 12.5 μM
[8] = selected compound final concentration 25 μM
[9] = selected compound final concentration 50 μM
[10] = selected compound final concentration 100 μM

Row | SMILES | Cell Survival Rate (increased percentage of cell survival compared with the Group of 5-FU) (HaCaT cells; [3]) | Cell Survival Rate (increased percentage of cell survival compared with the Group of 5-FU) (HaCaT cells; [4]) | Cell Survival Rate (increased percentage of cell survival compared with the Group of 5-FU) (HaCaT cells; [5]) | Cell Survival Rate (increased percentage of cell survival compared with the Group of 5-FU) (HaCaT cells; [6]) | Cell Survival Rate (increased percentage of cell survival compared with the Group of 5-FU) (HaCaT cells; [7]) | Cell Survival Rate (increased percentage of cell survival compared with the Group of 5-FU) (HaCaT cells; [8]) | Cell Survival Rate (increased percentage of cell survival compared with the Group of 5-FU) (HaCaT cells; [9]) | Cell Survival Rate (increased percentage of cell survival compared with the Group of 5-FU) (HaCaT cells; [10]) | further results
1 | CCC(=O)OC[C@H]1O[C@@H](n2cc(C)c(=O)[nH]c2=O)C[C@@H]1OC(=O)CC [T5] |  |  |  |  |  |  |  |  | activation at 1 µM (HaCaT cells; Homo sapiens, HaCaT, increase vs Group of 5-FU, 5-FU 20 μM, compound 1 μM, 48 h, read-out: Cell Survival Rate): 18 to 24%; activation at 10 µM (HaCaT cells; Homo sapiens, HaCaT, increase vs Group of 5-FU, 5-FU 20 μM, compound 10 μM, 48 h, read-out: Cell Survival Rate): 55 to 65%; activation at 100 µM (HaCaT cells; Homo sapiens, HaCaT, increase vs Group of 5-FU, 5-FU 20 μM, compound 100 μM, 48 h, read-out: Cell Survival Rate): 77 to 84%; activation at 500 µM (HaCaT cells; Homo sapiens, HaCaT, increase vs Group of 5-FU, 5-FU 20 μM, compound 500 μM, 48 h, read-out: Cell Survival Rate): 78 to 85%; activation at 1000 µM (HaCaT cells; [2]): 35 to 45%; Control Rate ([1]; SD rats, gel 2 wt% on hind paws): 30.00%
2 | Cc1ccc(Nc2c(F)cccc2Cl)c(CC(=O)OC[C@H]2O[C@@H](n3cc(C)c(=O)[nH]c3=O)C[C@@H]2O)c1 [T35] | 23%-31% | 25%-33% | 42%-48% | 64%-70% | 95%-101% | 84%-91% | 85%-92% | 39%-47% | Control Rate Forepaws ([1]; gel 1 wt%): 25%; Control Rate Hindpaws ([1]; gel 1 wt%): 37.50%; Control Rate Forepaws ([1]; gel 5 wt%): 75.00%; Control Rate Hindpaws ([1]; gel 5 wt%): 88%
3 | Cc1cn([C@H]2C[C@H](O)[C@@H](COC(=O)Cc3ccccc3Nc3c(Cl)cccc3Cl)O2)c(=O)[nH]c1=O [T39] | 36%-43% | 58%-66% | 64%-71% | 67%-74% | 65%-72% | 69%-77% | 69%-77% | 75%-83% | 
4 | COc1ccc2cc([C@H](C)C(=O)O[C@H]3C[C@H](n4cc(C)c(=O)[nH]c4=O)O[C@@H]3CO)ccc2c1 [T42] | 38%-45% | 59%-67% | 85%-93% | 85%-92% | 58%-66% | 68%-75% | 66%-74% |  | 
5 | Cc1cn([C@H]2C[C@H](OC(=O)C(C)c3cccc(Oc4ccccc4)c3)[C@@H](CO)O2)c(=O)[nH]c1=O (stereo partly shown) [T43] | 23%-31% | 49%-56% | 72%-79% | 91%-98% | 125%-133% | 99%-106% | 100%-107% | 34%-41% | 
6 | Cc1cn([C@H]2C[C@H](OC(=O)[C@@H](C)c3ccc(CC(C)C)cc3)[C@@H](CO)O2)c(=O)[nH]c1=O [T44] |  |  |  | 13%-20% | 27%-35% | 53%-60% | 69%-76% |  | 
7 | Cc1cn([C@H]2C[C@H](OC(=O)C(C)c3cccc(Oc4ccccc4)c3)[C@@H](COC(=O)C(C)c3cccc(Oc4ccccc4)c3)O2)c(=O)[nH]c1=O (stereo partly shown) [T46] |  |  | 27%-34% | 34%-41% | 48%-55% | 61%-68% | 65%-72% | 75%-83% | Cell Survival Rate (increased percentage of cell survival compared with the Group of 5-FU) (HaCaT cells; selected compound final concentration 200 μM): 54%-62%
8 | Cc1cn([C@H]2C[C@H](OC(=O)[C@@H](C)c3ccc(CC(C)C)cc3)[C@@H](COC(=O)[C@@H](C)c3ccc(CC(C)C)cc3)O2)c(=O)[nH]c1=O [T47] |  |  |  |  |  |  |  |  | Cell Survival Rate (increased percentage of cell survival compared with the Group of 5-FU) (HaCaT cells; selected compound final concentration 8 μM): 21%-28%; Cell Survival Rate (increased percentage of cell survival compared with the Group of 5-FU) (HaCaT cells; selected compound final concentration 16 μM): 35%-42%; Cell Survival Rate (increased percentage of cell survival compared with the Group of 5-FU) (HaCaT cells; selected compound final concentration 32 μM): 49%-56%; Cell Survival Rate (increased percentage of cell survival compared with the Group of 5-FU) (HaCaT cells; selected compound final concentration 62.5 μM): 63%-71%; Cell Survival Rate (increased percentage of cell survival compared with the Group of 5-FU) (HaCaT cells; selected compound final concentration 125 μM): 64%-72%; Cell Survival Rate (increased percentage of cell survival compared with the Group of 5-FU) (HaCaT cells; selected compound final concentration 250 μM): 44%-51%; Cell Survival Rate (increased percentage of cell survival compared with the Group of 5-FU) (HaCaT cells; selected compound final concentration 500 μM): 24%-31%
9 | Cc1cn([C@H]2C[C@H](O)[C@@H](CO)O2)c(=O)[nH]c1=O [thymidine] |  |  |  |  |  |  |  |  | activation at 200 µM (HaCaT cells; Homo sapiens, HaCaT, increase vs Group of 5-FU, 5-FU 20 μM, compound 200 μM, 48 h, read-out: Cell Survival Rate): 3 to 8%; activation at 1000 µM (HaCaT cells; [2]): 15 to 23%; activation at 1500 µM (HaCaT cells; Homo sapiens, HaCaT, increase vs Group of 5-FU, 5-FU 20 μM, compound 1500 μM, 48 h, read-out: Cell Survival Rate): 11 to 17%; activation at 2000 µM (HaCaT cells; Homo sapiens, HaCaT, increase vs Group of 5-FU, 5-FU 20 μM, compound 2000 μM, 48 h, read-out: Cell Survival Rate): 1 to 6%; activation at 3000 µM (HaCaT cells; Homo sapiens, HaCaT, increase vs Group of 5-FU, 5-FU 20 μM, compound 3000 μM, 48 h, read-out: Cell Survival Rate): -25 to 20%
